Measurements reported in paper PMC9377006, “Discovery of Desmuramylpeptide NOD2 Agonists with Single-Digit Nanomolar Potency” (ACS Medicinal Chemistry Letters, 2022).
Values belong to the molecule of their own block, whether it stands above or below them.

How the values were obtained:
[1] = target: T1, human NOD2 (Homo sapiens, UniProt Q9HC29); experiment: HEK-Blue NOD2 NF-κB SEAP reporter assay (NOD2 agonistic activity); type: cell-based
T1 construct: host or cells: HEK-Blue NOD2 cells (derived from HEK293)
Protocol: The synthesized desmuramylpeptides were evaluated for their dose-dependent NOD2 activity using the commercially available HEK-Blue NOD2 reporter cell line. This cell line is derived from HEK293 cells by cotransfection of human NOD2 and an NF-κB-inducible secreted embryonic alkaline phosphatase (SEAP). Activation of NOD2 and subsequently of NF-κB leads to the expression and secretion of SEAP, the level of which can be quantified colorimetrically. […]
two passages, 200 µg/mL Zeocin (Invivogen) was added to the medium every other passage to maintain selection pressure. The cells were incubated in a humidified atmosphere at 37 °C and 5% CO 2. […]
Aldrich), and 100 µg/mL streptomycin (Sigma -Aldrich).
The tested compounds were dissolved in DMSO and further di luted in culture medium to the desired final concentrations, such that the final DMSO concentration never exceeded 0.1%. […]
4.6 NOD1/NOD2-NF-kB reporter assay
HEK-Blue NOD2 or NOD1 cells were seeded (25,000 cells/well) in 96 -well plates in 100 µL HEK-Blue detection medium (Invivogen, San Diego, CA, USA) and treated with compounds ( 2 µM for fixed […]
the corresponding vehicle (0.1% DMSO). After 18 h of incubation (37 °C, 5% CO2), secreted embryonic alkaline phosphatase (SEAP) activity was determined spectrophotometrically as absorbance at 630 nm (BioTek Synergy microplate reader; Winooski, VT, USA). EC50 values were calculated using Prism software (version 9; GraphPad Software, CA, USA). The experiments were run in duplicates and repeated as at least three independent biological replicates. […]

[2] = tested on: PBMCs; experiment: Cytokine release from peripheral blood mononuclear cells; type: cell-based; conditions: human PBMCs, 18 h; NOD2 agonists 1 μM; LPS 10 ng/mL; IFN-γ 200 U/mL
Description: Encouraged by the potent NOD2 activity of 40, we preliminarily evaluated its immunostimulatory potential in human primary peripheral blood mononuclear cells (PBMCs). Specifically, we first investigated the ability of 40 to induce cytokine production in PBMCs. While activation of NOD2 alone is sufficient to elicit cytokine responses, these responses are usually of low intensity. However, NOD2 agonists can act in synergy with ligands of other innate immune receptors and proinflammatory cytokines to induce considerably stronger responses. We were particularly intrigued by the synergistic interactions between NOD2, TLR4, and IFN-γ. The synergy between NOD2 agonists and TLR4 agonists in terms of cytokine secretion, including IFN-γ, is well-established.[29],[30] Similarly, IFN-γ has previously been reported to augment the MDP-mediated activation and cytokine production by dendritic cells and macrophages.[31],[32]
Figure 2 Synergistic effects of 40 with LPS and IFN-γ on induction of cytokine production from PBMCs. Cytokine concentrations were measured after 18 h of stimulation with NOD2 agonists (1 μM) in the presence or absence of LPS (10 ng/mL) and IFN-γ (200 U/mL) or the corresponding vehicle (0.1% DMSO; NT). Data are expressed as mean ± SEM of three independent experiments. Statistical significance was determined by one-way ANOVA followed by Bonferroni’s multiple-comparisons test; *, p < 0.05, **, p < 0.01, ***, p < 0.001 versus vehicle-treated control; ##, p < 0.01, ###, p < 0.001 versus 40 or LPS alone.
Figure S5. The effect of 40 on the production of cytokines from human PBMCs is NOD2 -dependent. PBMCs were pre-incubated for 1 h in the presence or absence of the NOD2 antagonist SG84 (10 µM), before the addition of 40 (1 µM). Cytokine concentrations in supernatants were measured after 18 h stimulation.
Data are expressed as mean s ± SEM of 3 independent experiments. Statistical significance was determined by one-way ANOVA followed by Bonferroni’s multiple comparisons test; **, p < 0.01, ***, p < 0.001. […]
4.9 Cytokine release from peripheral blood mononuclear cells
Peripheral blood mononuclear cells were seeded ( 500,000 cells/well) in 24-well plates in 500 µL growth medium and treated with MDP (1 µM), 2 (1 µM), or 40 (1 µM), in the presence or absence of LPS (10 ng/mL) or IFN-γ (200 U/mL), or the corresponding vehicle (0.1% DMSO). In some wells, PBMCs were pre-treated for 1 h with the NOD2 antagonist SG84 (10 µM), before the addition of 40 (1 µM). Cell-free supernatants were collected after 18 h of incubation (37 °C, 5% CO2) and stored at -80 °C until tested.
Cytokine production was determined with BD Cytometric Bead Array human inflammatory cytokines kit (BD Bioscience) on an Attune NxT flow cytometer (Thermo Fisher Scientific, Waltham, MA, USA). Standard curves were generated using recombinant cytokines contained in the kit. The data were analyzed using the FlowJo (Tree Star, Inc., Ashland, OR, USA) and Prism (GraphPad, San Diego, CA, USA) software.

[3] = tested on: K562 cancer cells; experiment: PBMC cytotoxicity against K562 cancer cells; type: cell-based; conditions: 1 μM + LPS 1 μg/mL or IFN-γ 200 U/mL, 18 h; 40:1, 4 h
Protocol: In addition, we also investigated the ability of 40, both alone and in combination with LPS and IFN-γ, to induce direct and nonspecific cytolytic activity of PBMCs against cancer cells. For this purpose, we used a functional cytotoxicity assay based on the coincubation of preactivated PBMCs and fluorescently labeled K562 cancer cells.[33] Among the heterogeneous subpopulations of PBMCs, natural killer (NK) cells and, to a lesser extent, monocytes represent the main effector cell types in this assay. NK cells play an essential role in tumor and viral immunosurveillance, both through direct cytolytic destruction of aberrant cells and by facilitating the recruitment and activation of other immune cells through the secretion of cytokines.[34] In addition to their well-established role in cancer immunotherapy, NK cells thus also provide an attractive target in the development of vaccine adjuvants, particularly when Th1 cellular immune responses are preferred.[35] Other cell populations, however, may contribute to the magnitude of NK cell-mediated responses via cytokine secretion. To account for the contribution of these accessory cells and to more accurately represent in vivo conditions, the entire PBMC population was used instead of isolated NK cells.
Figure 3 2 and 40 synergize with LPS and IFN-γ to induce the cytotoxicity of PBMCs against K562 cancer cells. Following 18 h of stimulation of PBMCs with 2 (1 μM) or 40 (1 μM) in the presence or absence of LPS (1 μg/mL) and IFN-γ (200 U/mL) or the corresponding vehicle (0.1% DMSO; NT), K562 cells were added in a 40:1 effector to target cell ratio. Cytotoxicity was determined after 4 h of coincubation. IL-2 (200 U/mL) was used as the positive control. Data are shown as relative activities to vehicle-treated control (0.1% DMSO) and are the means ± SEMs of duplicates of two independent experiments. Statistical significance was determined by one-way ANOVA followed by Dunnet’s multiple-comparisons test; **, p < 0.01, ***, p < 0.001. […]
4.8 Peripheral blood mononuclear cell cytotoxicity
The PBMC cytotoxicity assays using K562 cells were performed as described previously, with some modifications.2 PBMCs were seeded (400,000 cells/well) in duplicates in 96 -well U-bottom plates and treated with 2 (1 µM) or 40 (1 µM), in the presence or absence of LPS (1 µg/mL) or IFN-γ (200 U/mL), IL-2 (200 U/mL), or the corresponding vehicle (0.1% DMSO) for 18 h. K562 were stained with carboxyfluorescein succinimidyl ester (CFSE, Invitrogen, Carlsbad, CA, USA), washed twice with complete medium, and added (10,000 cells/well) to the pre-treated PBMCs for a final effector cell to target tumor cell ratio of 40:1. After a 4 h coincubation (37 °C, 5% CO2), cells were stained with Sytox Blue dead cell stain (Invitrogen) and analyzed using an Attune NxT flow cytometer (Thermo Fisher Scientific, Waltham, MA, USA) and FlowJo software (Tree Star, Inc., Ashland, OR, USA). Cells that were positive for both CFSE and Sytox Blue were defined as dead K562 cells. PBMCs alone and CFSE-labeled K562 cells alone were also treated with the compounds at the same concentrations and stained with Sytox Blue to exclude any direct cytotoxicity of the compounds towards the PBMCs and cancer cells.
4.9 Cytokine release from peripheral blood mononuclear cells […]

[4] = tested on: K562 cancer cells; set-up: method as in PMID 34043358; conditions: cited from earlier work
[5] = HEK-Blue NOD2 cells, 18 h, means ± SEMs of at least three independent experiments, 8 or 16 concentrations (0.1 nM to 20 μM)

T1 sequence (Q9HC29 whole entry): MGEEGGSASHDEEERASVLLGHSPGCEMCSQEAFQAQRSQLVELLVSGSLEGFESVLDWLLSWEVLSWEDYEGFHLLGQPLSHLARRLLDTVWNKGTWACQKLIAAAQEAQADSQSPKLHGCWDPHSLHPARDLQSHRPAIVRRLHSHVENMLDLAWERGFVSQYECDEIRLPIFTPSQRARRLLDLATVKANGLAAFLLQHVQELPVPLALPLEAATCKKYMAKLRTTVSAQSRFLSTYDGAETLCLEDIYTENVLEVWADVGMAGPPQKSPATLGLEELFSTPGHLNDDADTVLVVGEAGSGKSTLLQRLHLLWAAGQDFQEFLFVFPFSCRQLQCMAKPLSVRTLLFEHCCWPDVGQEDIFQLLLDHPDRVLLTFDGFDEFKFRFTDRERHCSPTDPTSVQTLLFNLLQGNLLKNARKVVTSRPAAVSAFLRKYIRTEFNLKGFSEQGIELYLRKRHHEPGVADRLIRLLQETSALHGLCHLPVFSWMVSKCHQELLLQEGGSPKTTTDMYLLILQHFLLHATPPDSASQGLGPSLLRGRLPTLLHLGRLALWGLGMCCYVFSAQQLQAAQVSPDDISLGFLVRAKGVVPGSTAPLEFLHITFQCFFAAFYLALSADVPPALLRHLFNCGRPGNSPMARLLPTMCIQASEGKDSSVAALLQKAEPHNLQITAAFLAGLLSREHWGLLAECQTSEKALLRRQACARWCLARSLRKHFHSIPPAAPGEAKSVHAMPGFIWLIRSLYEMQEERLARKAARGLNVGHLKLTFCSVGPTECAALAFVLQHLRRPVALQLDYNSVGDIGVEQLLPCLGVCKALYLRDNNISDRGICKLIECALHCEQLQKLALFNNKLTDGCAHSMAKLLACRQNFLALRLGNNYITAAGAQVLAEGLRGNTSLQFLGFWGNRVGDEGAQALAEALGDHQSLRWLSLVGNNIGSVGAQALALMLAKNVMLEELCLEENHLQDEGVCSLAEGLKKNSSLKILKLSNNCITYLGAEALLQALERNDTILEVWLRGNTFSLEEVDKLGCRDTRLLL

EC50 [1, 5]: 0.316 ± 0.03 µM
Molecule: CCOC(=O)CC[C@@H](NC(=O)[C@@H](NC(=O)CNC(=O)c1cc2cc(Br)ccc2o1)C(C)C)C(=O)OCC [Compound 32]

EC50 ([1]; HEK-Blue NOD2 cells): 1.93 µM
EC50 [1, 5]: 1.93 ± 0.168 µM
Molecule: CCOC(=O)CC[C@@H](NC(=O)[C@@H](NC(=O)CNC(=O)c1cc2ccc(Br)cc2o1)C(C)C)C(=O)OCC [Compound 31]

EC50 [1, 5]: 0.76 ± 0.084 µM
Molecule: CCOC(=O)CC[C@@H](NC(=O)[C@@H](NC(=O)CNC(=O)c1cc2cc([N+](=O)[O-])ccc2o1)C(C)C)C(=O)OCC [Compound 33]

EC50 [1, 5]: 0.42 ± 0.041 µM
Molecule: CCOC(=O)CC[C@@H](NC(=O)[C@H](CCc1ccccc1)NC(=O)CNC(=O)/C=C/c1ccc(O)c(OC)c1)C(=O)OCC [Compound 17]

EC50 ([1]; HEK-Blue NOD2 cells): 2.67 µM
EC50 [1, 5]: 2.67 ± 0.357 µM
reduction in potency relative to 1 ([1]; NOD2 EC50 versus compound 1): 30 fold
Molecule: CCOC(=O)CC[C@@H](NC(=O)[C@@H](NC(=O)CNC(=O)/C=C/c1ccc2c(c1)OCO2)C(C)C)C(=O)OCC [Compound 29]

EC50 [1, 5]: 0.203 ± 0.012 µM
Molecule: CC(=O)NC1C(O)OC(CO)C(O)C1OC(C)C(=O)NC(C)C(=O)NC(CCC(=O)O)C(N)=O (stereo not drawn) [MDP, muramyl dipeptide, reference compound]
production of IL-1β, IL-6, IL-8 and TNF-α, stimulant alone [2]: modest production

Molecule: COc1cc(/C=C/C(=O)NCC(=O)N[C@H](C(=O)N[C@H](CCC(=O)OC2CCCC2)C(=O)OC2CCCC2)C(C)C)ccc1O [Compound 2]
production of IL-1β, IL-6, IL-8 and TNF-α, stimulant alone [2]: modest production
LPS- and IFN-γ-induced cytotoxic activity of PBMCs against K562, costimulation [3]: significantly enhanced
induction of cytotoxic activity of PBMCs (previous observations) [4]: failed to induce

EC50 ([1]; HEK-Blue NOD2 cells): 4.34 µM
EC50 [1, 5]: 4.34 ± 0.468 µM
Molecule: CCOC(=O)CC[C@@H](NC(=O)[C@@H](NC(=O)CNC(=O)c1cc2ccccc2o1)C(C)C)C(=O)OCC [Compound 30]

EC50 [1, 5]: > 10 µM
Molecule: CCOC(=O)CC[C@@H](NC(=O)[C@@H](NC(=O)CNC(=O)/C=C/c1ccc(O)c(OC)c1)C12CC3CC(CC(C3)C1)C2)C(=O)OCC [Compound 16]

Molecule: CCOC(=O)CC[C@@H](NC(=O)[C@@H](NC(=O)CNC(=O)/C=C/c1ccc(O)c(OC)c1)C(C)C)C(=O)OCC [Compound 1]
induction of cytotoxic activity of PBMCs (previous observations) [4]: failed to induce

Molecule: lipopolysaccharide [LPS, reference compound]
production of IL-1β, IL-6, IL-8 and TNF-α, stimulant alone [2]: strong increase

NOD2 agonistic activity at the highest concentration tested ([1]; 20 μM, HEK-Blue NOD2 cells): only minor NOD2 agonistic activity
EC50 [1, 5]: > 10 µM
Molecule: CCOC(=O)CC[C@@H](NC(=O)[C@H](Cc1ccncc1)NC(=O)CNC(=O)/C=C/c1ccc(O)c(OC)c1)C(=O)OCC [Compound 15]

EC50 ([1]; HEK-Blue NOD2 cells): 2.62 µM
EC50 [1, 5]: 2.62 ± 0.209 µM
Molecule: CCOC(=O)CC[C@@H](NC(=O)[C@@H](NC(=O)CNC(=O)c1nc(-c2ccccc2)oc1C)C(C)C)C(=O)OCC [Compound 34]

Molecule: COc1cc(/C=C/C(=O)NCC(=O)N[C@H](C(=O)N[C@H](CCC(=O)OC2CCCC2)C(=O)OC2CCCC2)C(C)C)ccc1OC(=O)CC12CC3CC(CC(C3)C1)C2 [Compound 41]
EC50 [1, 5]: 0.044 ± 0.009 µM

B1: interferon-γ (protein, UniProt P01579 24-161, looked up)
Interferon gamma: QDPYVKEAENLKKYFNAGHSDVADNGTLFLGILKNWKEESDRKIMQSQIVSFYFKLFKNFKDDQSIQKSVETIKEDMNVKFFNSNKKKRDDFEKLTNYSVTDLNVQRKAIHELIQVMAELSPAAKTGKRKRSQMLFRG
notes: proinflammatory cytokine used as costimulus
production of IL-1β, IL-6, IL-8 and TNF-α, stimulant alone [2]: negligible cytokine secretion
